These results are taken from US12128028B2, “Heterocyclic sulfonamide derivatives and pharmaceutical uses thereof” (METRION BIOSCIENCES LIMITED, priority 2018, dated 2024).

In this assay the target is human Kv1.3 (Homo sapiens (Human), UniProt P22001). Put plainly: Kv1.3 potency evaluation, automated patch clamp electrophysiology (QPatch HT) in CHO-Kv1.3 cells. It is filed as cell-based. The note with it: whole-cell QPatch HT, % inhibition of charge, step to +30 mV, four concentrations, N≥3 cells, read-out: hKv1.3 IC50. The source says: Biological Assays Kv1.3 Potency Evaluation Electrophysiology Recordings
A proprietary Chinese hamster ovary cell line stably expressing exogenous human a-subunits of Kv1.3 (CHO-Kv1.3) channel, validated biophysically and pharmacologically in house, was used to assess the ability of test compounds to block Kv1.3 currents using automated patch clamp electrophysiology. The QPatch HT system (Sophion Bioscience A/S, Denmark) was used with the conventional whole-cell configuration. This system is an automated, chip-based planar patch clamp device allowing for up to 48 parallel independent experiments in one experimental assay run. Cells are added to each well and drawn by suction onto a small aperture to obtain a Gigaohm seal between the cell membrane and treated silicon surface, and whole-cell recordings initiated after access is achieved by suction and/or voltage pulses. The QPatch HT uses static perfusion, whereby a small volume of recording solution or drug is added to a reservoir on the chip and the solution perfuses across the cell through quartz-lined microfluidic channels; this solution is removed by capillary action when the next sample application is made.
CHO-Kv1.3 cells were prepared for experiments by dissociation from T175 cell culture flasks using trypsin-EDTA (0.05%), cells were kept in serum free media in the cell hotel on board the QPatch HT. These cells were sampled, washed and re-suspended in extracellular recording solution by the QPatch HT immediately before application to the recording well site on the chip. Experiments were performed using the following solutions; extracellular solution contained (in mM); 150 NaCl, 10 KCl, 1 MgCl2, 3 CaCl2), 10 Glucose and 10 HEPES (pH 7.4, NaOH) and intracellular solution contained (in mM); 20 KCl, 120 KF, 10 HEPES, 10 EGTA, 5 ATP (pH 7.2, KOH).
The potency (Inhibitory Concentration 50%, IC50) of synthesized compounds against Kv1.3 was determined from concentration-response relationships established by cumulatively applying four escalating concentrations of test compound to an individual cell and a minimum of N≥3 individual cells of data per compound were used to generate the IC50 value.
On achieving the whole-cell configuration; two additions of vehicle (0.1-0.3% DMSO v/v) were applied to each cell in two bolus additions with a two minute recording period between each addition (four minutes total recording time). Following the vehicle period, four concentrations of test sample were applied as two bolus additions per test concentration at two minute intervals, and the effects on current measured during the four minute recording period.
Currents were elicited using a single step voltage protocol. From a holding potential of −80 mV the cell is depolarised to +30 mV (500 ms) resulting in an outward current before finally repolarising the cell by returning to the holding potential. The command voltage was applied at a frequency of 0.067 Hz throughout the duration of the experiment. For each sweep of the voltage protocol membrane current and the passive properties of the individual cells were recorded by QPatch assay software (version 5.2). Cursors were placed to calculate the charge (integral of the current recorded during cursor interval) between 2-490 ms (0.4-99%) of the 500 ms step to +30 mV.
The % inhibition of charge for each test concentration application period was calculated as the reduction in mean charge at the end of each concentration test period relative to the charge value measured at the end of the control (i.e. vehicle) period. Sigmoidal concentration response curves (four parameter logistic curve) were fitted to the % inhibition rom which the IC50 was determined. Curve fits were constrained at 0 and 100%.

human Kv1.3, sequence (P22001 whole entry): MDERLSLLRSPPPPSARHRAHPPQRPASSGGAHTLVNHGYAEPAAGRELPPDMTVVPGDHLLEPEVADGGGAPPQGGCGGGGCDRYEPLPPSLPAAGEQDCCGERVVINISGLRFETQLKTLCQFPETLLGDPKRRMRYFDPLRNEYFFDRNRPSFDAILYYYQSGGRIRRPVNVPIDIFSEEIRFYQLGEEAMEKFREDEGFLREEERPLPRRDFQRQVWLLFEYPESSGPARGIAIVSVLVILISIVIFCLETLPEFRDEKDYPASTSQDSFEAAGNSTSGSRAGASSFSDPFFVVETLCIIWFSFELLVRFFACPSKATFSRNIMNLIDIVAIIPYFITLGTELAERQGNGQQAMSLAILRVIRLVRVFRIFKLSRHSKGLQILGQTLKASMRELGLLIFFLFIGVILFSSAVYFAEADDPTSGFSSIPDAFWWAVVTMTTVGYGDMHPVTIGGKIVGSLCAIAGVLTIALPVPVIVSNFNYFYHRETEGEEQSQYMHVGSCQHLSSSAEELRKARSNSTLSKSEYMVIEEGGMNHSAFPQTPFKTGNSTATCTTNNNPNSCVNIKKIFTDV

Consider `CN(C(=O)[C@@H]1NC(C23CC(N(Cc4ccc(Cl)c(Cl)c4)S(=O)(=O)c4ccccc4)(C2)C3)=NC1(C)C)C12CC(C1)C2` (mixture of isomers) [Example 17], for which the IC50 came out at 35 nM. Turning to `CC1(C)N=C(C23CC(N(Cc4ccc(Cl)cc4)S(=O)(=O)c4ccccc4)(C2)C3)N[C@H]1C(=O)NCC1CC1(F)F` (mixture of isomers) [Example 51], the IC50 was determined as 48 nM. With `CCCS(=O)(=O)N(Cc1ccc(Cl)c(Cl)c1)C12CC(C3=NC(C)(C)[C@H](C(=O)NCCCC(F)(F)F)N3)(C1)C2` (mixture of isomers) [Example 216] the figure was 163 nM; with `CC1(C)N=C(C23CC(N(Cc4ccc(Cl)c(F)c4)S(=O)(=O)c4ccccc4)(C2)C3)N[C@H]1C(=O)NCCC(F)(F)F` (mixture of isomers) [Example 13], 37 nM. Under `CC1(C)N=C(C23CC(N(Cc4ccc(Cl)cc4)S(=O)(=O)N4CCC(F)(F)C4)(C2)C3)N[C@H]1C(=O)NCCC(F)(F)F` (mixture of isomers) [Example 212] stands 149 nM; under `CC1(C)N=C(C23CC(N(Cc4ccc(F)cc4)S(=O)(=O)c4ccccc4)(C2)C3)NC1C(=O)NCCC(F)(F)F` (stereo not shown) [Example 97], 66 nM. With `CC1(C)N=C(C23CC(N(Cc4ccc(Cl)cc4)S(=O)(=O)c4ccccn4)(C2)C3)N[C@H]1C(=O)NCCC(F)(F)F` (mixture of isomers) [Example 48] the figure was 48 nM; with `CCCS(=O)(=O)N(Cc1ccc(Cl)c(Cl)c1)C12CC(C3=NC(C)(C)[C@H](C(=O)NCC(C)(C)C(F)(F)F)N3)(C1)C2` (mixture of isomers) [Example 46], 47 nM; with `CC(C)CC1(C(=O)NCC2CCC2)CN=C(C23CC(N(Cc4ccc(C(F)(F)F)cc4)S(=O)(=O)c4ccc(F)cc4)(C2)C3)N1` (stereo not shown) [Example 284], 787 nM. In the case of `CC1(C)N=C(C23CC(N(Cc4ccc(Cl)c(F)c4)S(=O)(=O)c4ccccc4)(C2)C3)N[C@H]1C(=O)N1CCCC12CCC2` (mixture of isomers) [Example 71], the IC50 worked out at 57 nM.

`CCCC1(C(=O)NC(C)C)CN=C(C23CC(N(Cc4ccc(C(F)(F)F)cc4)S(=O)(=O)c4ccc(F)cc4)(C2)C3)N1` (stereo not shown) [Example 182]: the IC50 came to 108 nM. Under `CC1(C)N=C(C23CC(N(Cc4ccc(Cl)c(Cl)c4)S(=O)(=O)CCC(F)F)(C2)C3)N[C@H]1C(=O)NCC1CC(F)(F)C1` (mixture of isomers) [Example 205] stands 136 nM. Consider `CC1(C)N=C(C23CC(N(Cc4ccc(F)c(F)c4)S(=O)(=O)c4ccccc4)(C2)C3)N[C@H]1C(=O)NCCC(F)(F)F` (mixture of isomers) [Example 24], for which the IC50 was 40 nM. In the case of `CCCS(=O)(=O)N(Cc1ccc(Cl)cc1)C12CC(C3=NC(C)(C)[C@H](C(=O)NCCC(F)(F)F)N3)(C1)C2` (mixture of isomers) [Example 7], the IC50 came out at 26 nM.

With `CC1(C)CC(NC(=O)[C@@]2(C)CN=C(C34CC(N(Cc5ccc(C(F)(F)F)cc5)S(=O)(=O)c5ccc(F)cc5)(C3)C4)N2)C1` (mixture of isomers) [Example 280], the IC50 turned out to be 615 nM. On to `CC1(C)N=C(C23CC(N(Cc4ccccc4)S(=O)(=O)c4ccccc4)(C2)C3)N[C@H]1C(=O)NCCC(F)(F)F` (mixture of isomers) [Example 25], for which the IC50 was 40 nM. As to `CN(C)C(=O)[C@]1(C)CN=C(C23CC(N(Cc4ccc(C(F)(F)F)cc4)S(=O)(=O)c4ccc(F)cc4)(C2)C3)N1` (mixture of isomers) [Example 230], the IC50 was found to be 201 nM. Under `CC1(C)N=C(C23CC(N(Cc4ccc(Cl)c(F)c4)S(=O)(=O)c4ccccc4)(C2)C3)N[C@H]1C(=O)N1CCC1` (mixture of isomers) [Example 282] stands 706 nM; under `O=C(NCC1CCC1)C1NC(C23CC(N(Cc4ccc(C(F)(F)F)cc4)S(=O)(=O)c4ccc(F)cc4)(C2)C3)=NC12CC2` (stereo not shown) [Example 239], 230 nM.

`CC1(C)N=C(C23CC(N(Cc4ccc(Cl)c(F)c4)S(=O)(=O)c4ccccc4)(C2)C3)N[C@H]1C(=O)NCC1CC1(F)F` (mixture of isomers) [Example 11]: the IC50 worked out at 28 nM. Under `CCCS(=O)(=O)N(Cc1ccc(Cl)c(Cl)c1)C12CC(C3=NC(C)(C)[C@H](C(=O)N4CCC(F)(F)CC4)N3)(C1)C2` (mixture of isomers) [Example 96] stands 65 nM; under `CC1(C)N=C(C23CC(N(Cc4ccc(Cl)cc4)S(=O)(=O)C(C)(C)C)(C2)C3)N[C@H]1C(=O)NCCC(F)(F)F` (mixture of isomers) [Example 287], 976 nM; under `CC1(C)CC(CNC(=O)[C@@]2(C)CN=C(C34CC(N(Cc5ccc(C(F)(F)F)cc5)S(=O)(=O)c5ccc(F)cc5)(C3)C4)N2)C1` (mixture of isomers) [Example 289], 1060 nM.

Regarding `CC1(C)N=C(C23CC(N(Cc4ccc(Cl)cc4)S(=O)(=O)c4ccoc4)(C2)C3)N[C@H]1C(=O)NCCC(F)(F)F` (mixture of isomers) [Example 8], the IC50 was found to be 27 nM. With `C[C@]1(C(=O)NCC(F)(F)F)CN=C(C23CC(N(Cc4ccc(C(F)(F)F)cc4)S(=O)(=O)c4ccc(F)cc4)(C2)C3)N1` (mixture of isomers) [Example 260] the figure was 370 nM. With `CC1(C)N=C(C23CC(N(Cc4ccc(Cl)cc4)S(=O)(=O)c4ccccc4)(C2)C3)N[C@H]1C(=O)NC[C@H]1CC1(F)F` (mixture of isomers) [Example 39] the figure was 45 nM; with `CC(C)(F)CNC(=O)[C@@H]1NC(C23CC(N(Cc4ccc(Cl)c(F)c4)S(=O)(=O)c4ccccc4)(C2)C3)=NC1(C)C` (mixture of isomers) [Example 35], 44 nM; with `C[C@@]1(C(=O)Nc2ccccc2)CN=C(C23CC(N(Cc4ccc(C(F)(F)F)cc4)S(=O)(=O)c4ccc(F)cc4)(C2)C3)N1` (mixture of isomers) [Example 288], 1020 nM. With `CC1(C)N=C(C23CC(N(Cc4ccc(Cl)cc4)S(=O)(=O)c4ccccc4)(C2)C3)N[C@H]1C(=O)NCc1c(F)cc(F)cc1F` (mixture of isomers) [Example 154] the figure was 91 nM. For `CC1(C)N=C(C23CC(N(Cc4ccc(Cl)c(F)c4)S(=O)(=O)c4ccccc4)(C2)C3)N[C@H]1C(=O)N1CCC2(C1)CC(F)(F)C2` (mixture of isomers) [Example 144], the IC50 stood at 87 nM. Turning to `CC1(C)N=C(C23CC(N(Cc4ccc(Cl)c(F)c4)S(=O)(=O)c4ccccc4)(C2)C3)N[C@H]1C(=O)N1CCC(C(F)(F)F)CC1` (mixture of isomers) [Example 188], the IC50 turned out to be 112 nM. Regarding `CC1(C)N=C(C23CC(N(Cc4ccc(Cl)c(Cl)c4)S(=O)(=O)CCC(F)F)(C2)C3)N[C@H]1C(=O)NCC(F)(F)C(F)(F)F` (mixture of isomers) [Example 210], the IC50 was found to be 144 nM. Under `C[C@H](NC(=O)[C@@H]1NC(C23CC(N(Cc4ccc(Cl)c(F)c4)S(=O)(=O)c4ccccc4)(C2)C3)=NC1(C)C)C(F)(F)F` (mixture of isomers) [Example 73] stands 58 nM; under `CC1(C)N=C(C23CC(N(Cc4cccc(Cl)c4)S(=O)(=O)c4ccccc4)(C2)C3)N[C@H]1C(=O)NCCC(F)(F)F` (mixture of isomers) [Example 16], 35 nM. With `CN(C(=O)[C@@H]1NC(C23CC(N(Cc4ccc(Cl)c(Cl)c4)S(=O)(=O)c4ccccc4)(C2)C3)=NC1(C)C)C1CC(F)(F)C1` (mixture of isomers) [Example 29] the figure was 40 nM; with `CC1(C)N=C(C23CC(N(Cc4ccc(Cl)c(Cl)c4)S(=O)(=O)c4ccccc4)(C2)C3)N[C@H]1C(=O)NC1CC1C(F)(F)F` (mixture of isomers) [Example 189], 112 nM; with `CC1(C)N=C(C23CC(N(Cc4ccc(Cl)c(F)c4)S(=O)(=O)c4ccccc4)(C2)C3)N[C@H]1C(=O)N1CCC2(CCC2)C1` (mixture of isomers) [Example 109], 71 nM.
